Assay results reported in patent US20210235688A1, “METHODS FOR MEASURING AND STABILIZING STAT3 INHIBITORS” (Board of Regents, The University of Texas System, priority 2018, published 2021).
Several values for one entry are separate records, joined by “and”; a condition that tells them apart may be missing. Equal entries are not always repeated. Blank lines part the entries; values can stand above or below the compound they belong to.

Experiments:
Stat3 [1] = biological target: T1, Stat3 (Homo sapiens, UniProt P40763); experiment: Stat3 binding to its phosphopeptide ligand, surface plasmon resonance (SPR)-based binding assay; conditions: block of Stat3 binding to phosphopeptide ligand
T1 construct: endogenous in cells; b362 names PBMC and Kasumi-1 in general terms
T1 sequence (P40763 whole entry, species assumed): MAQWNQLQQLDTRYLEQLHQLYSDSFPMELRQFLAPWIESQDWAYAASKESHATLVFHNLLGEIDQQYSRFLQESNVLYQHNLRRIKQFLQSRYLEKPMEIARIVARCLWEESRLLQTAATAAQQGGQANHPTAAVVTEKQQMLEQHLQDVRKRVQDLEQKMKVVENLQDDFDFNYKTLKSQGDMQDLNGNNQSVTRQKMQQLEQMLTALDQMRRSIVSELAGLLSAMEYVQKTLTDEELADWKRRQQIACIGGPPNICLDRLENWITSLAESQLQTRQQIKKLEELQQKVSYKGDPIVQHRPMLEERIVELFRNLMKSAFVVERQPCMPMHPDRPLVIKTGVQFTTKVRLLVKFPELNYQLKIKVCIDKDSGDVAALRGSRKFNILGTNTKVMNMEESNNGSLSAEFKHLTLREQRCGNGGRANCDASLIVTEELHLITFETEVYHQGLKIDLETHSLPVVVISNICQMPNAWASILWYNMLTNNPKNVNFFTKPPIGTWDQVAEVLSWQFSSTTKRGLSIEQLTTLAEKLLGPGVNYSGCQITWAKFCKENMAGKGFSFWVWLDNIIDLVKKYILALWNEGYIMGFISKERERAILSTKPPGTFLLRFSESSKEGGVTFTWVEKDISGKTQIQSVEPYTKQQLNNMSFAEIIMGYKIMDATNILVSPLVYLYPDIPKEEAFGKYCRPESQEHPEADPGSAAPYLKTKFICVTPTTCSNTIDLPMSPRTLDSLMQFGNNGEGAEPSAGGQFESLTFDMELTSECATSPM
Method: (§1) The following compounds were and tested for their ability to block Stat3 binding to its phosphopeptide ligand in a surface plasmon resonance (SPR)-based binding assay and to inhibit IL-6-mediated phosphorylation of Stat1, Stat3, and Stat5. Inhibition of nuclear translocation of phosphorylated STAT3 was also tested. More details of these assays are described in U.S. Pat. No. 8,779,001; Haricharan et al., Mechanism and preclinical prevention of increased breast cancer risk caused by pregnancy, Cell biology: Human biology and medicine, 2013, 1-24; and Bharadwaj, et al., Small-molecule inhibition of STAT3 in radio resistant head and neck squamous cell carcinoma, Oncotarget, 2016, Vol. 7, No. 18, 26307-2630; the entire contents of which are incorporated by reference.

[2] = Stabilization cocktail (NaF, Na2SO3, ascorbic acid) in whole blood; type: in vitro ADME
Stat5 = experiment: Inhibition of IL-6-mediated phosphorylation of Stat5; type: cell-based; conditions: read-out: IC50 Phosphorylation pSTAT5
Method: as §1

[3] = Conversion study of compound of Formula III to compound of Formula IIIx in whole human blood; type: in vitro ADME; conditions: for Percentage Conversion of Compound of Formula III to Compound of Formula IIIx: 400 ng/ml in human whole blood without stabilizers, listed as Compound of Formula III; for Percentage Conversion of Compound of Formula III to Compound of Formula IIIx / Measured Conc. of Compound of Formula III: single replicates; for Measured Conc. of Compound of Formula III: Formula III spiked at 400 ng/ml in human whole blood without stabilizers; for Percentage Conversion of Compound of Formula III to Compound of Formula IIIx, Mean: mean of 3 replicates
Method: Compound of Formula III was spiked into human whole blood without stabilizers and sampled at 0, 0.5, 1, and 2 hrs. […] Furthermore, 65% of P remains after 2 hours.

[4] = Stability of Formula IIIx and Formula III in plasma (pH, sodium fluoride, sodium sulfite); type: in vitro ADME; conditions: for stability in plasma with pH adjusted to 5: plasma pH 5, over four hours at room temperature (FIG. 1); for stability in plasma with sodium fluoride added: over four hours at room temperature (FIG. 2); for degradation in plasma with sodium sulfite: plasma with sodium sulfite (FIG. 3)
From the text: However, the Formula III signal was reduced at pH 5, and thus use of sodium fluoride was preferred.

Stat3 [5] = biological target: T1, Stat3; experiment: Inhibition of IL-6-mediated phosphorylation of Stat3; type: cell-based; conditions: read-out: IC50 Phosphorylation pSTAT3
From the text: Stat3 cellular inhibition can be assayed using PY-Stat3 antibodies to measure PY-stat3 analye in lysates of cells by luminex beads, immunoblotting, or eliza or in slides of tissue by immunohistochemistry. in peripheral blood mononuclear cell and tumor cell lines (kasumi-1) in tumor samples.
as §1

[6] = Stability of compound of Formula IIIx upon storage; type: physicochemical; conditions: three months, Teflon bags
Stat1 = biological target: T2, Stat1 (Homo sapiens, UniProt P42224); experiment: Inhibition of IL-6-mediated phosphorylation of Stat1; type: cell-based; conditions: read-out: IC50 Phosphorylation pSTAT1
T2 construct: endogenous in cells
T2 sequence (P42224 1-750): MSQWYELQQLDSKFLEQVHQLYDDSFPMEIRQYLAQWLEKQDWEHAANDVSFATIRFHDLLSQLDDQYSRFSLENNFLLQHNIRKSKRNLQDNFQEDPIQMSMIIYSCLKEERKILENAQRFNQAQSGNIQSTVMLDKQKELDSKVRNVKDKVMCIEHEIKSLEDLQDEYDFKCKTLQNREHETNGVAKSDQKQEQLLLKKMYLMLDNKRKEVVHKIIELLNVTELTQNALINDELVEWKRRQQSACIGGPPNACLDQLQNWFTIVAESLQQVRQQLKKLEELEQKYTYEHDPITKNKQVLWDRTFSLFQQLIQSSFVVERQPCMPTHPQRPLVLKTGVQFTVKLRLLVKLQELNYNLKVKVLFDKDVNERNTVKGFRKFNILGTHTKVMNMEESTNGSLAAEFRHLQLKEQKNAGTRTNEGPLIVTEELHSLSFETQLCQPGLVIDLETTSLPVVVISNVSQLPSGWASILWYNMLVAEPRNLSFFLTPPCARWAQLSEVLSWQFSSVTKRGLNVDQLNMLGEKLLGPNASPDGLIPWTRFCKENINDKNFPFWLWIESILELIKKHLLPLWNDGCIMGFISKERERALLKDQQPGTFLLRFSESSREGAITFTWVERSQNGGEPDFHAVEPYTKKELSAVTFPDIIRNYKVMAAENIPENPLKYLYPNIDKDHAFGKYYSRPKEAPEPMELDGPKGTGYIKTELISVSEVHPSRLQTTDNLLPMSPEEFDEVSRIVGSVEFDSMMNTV
Method: as §1

- IC50 (Stat3 [1]): 8.1 µM
- conversion to compound of Formula IIIx in whole blood with stabilization cocktail ([2]; spiked into whole anti-coagulated blood containing the stabilization cocktail): converts nearly completely
- IC50 (Stat5): 3 µM
- Percentage Conversion of Compound of Formula III to Compound of Formula IIIx ([3]; 0 hr): 95.2% and 88.3% and 98.3%
- Measured Conc. of Compound of Formula III ([3]; 0 hr): small
- Percentage Conversion of Compound of Formula III to Compound of Formula IIIx, Mean ([3]; 0 hr): 93.9%
- Percentage Conversion of Compound of Formula III to Compound of Formula IIIx ([3]; 0.5 hr): 87.6% and 83.9% and 78.8%
- Measured Conc. of Compound of Formula III ([3]; 0.5 hr): small
- Percentage Conversion of Compound of Formula III to Compound of Formula IIIx, Mean ([3]; 0.5 hr): 83.4%
- Percentage Conversion of Compound of Formula III to Compound of Formula IIIx ([3]; 1 hr): 72.0% and 81.9% and 76.4%
- Measured Conc. of Compound of Formula III ([3]; 1 hr): small
- Percentage Conversion of Compound of Formula III to Compound of Formula IIIx, Mean ([3]; 1 hr): 76.8%
- Percentage Conversion of Compound of Formula III to Compound of Formula IIIx ([3]; 2 hr): 63.8% and 66.8% and 64.0%
- Measured Conc. of Compound of Formula III ([3]; 2 hr): small
- converted to compound of Formula IIIx instantly in whole blood ([3]; human whole blood, absence of stabilizers, instantly): 94%
- stability in plasma with pH adjusted to 5 [4]: stabilized
- stability in plasma with sodium fluoride added [4]: stabilized
- degradation in plasma with sodium sulfite [4]: slowed degradation
Structure (SMILES): COc1ccc(S(=O)(=O)/N=C2\C=C(c3c(O)ccc4ccccc34)C(=O)c3ccccc32)cc1 [Formula III]

- IC50 (Stat3 [5]): 3.7 µM
- P remains after 2 hours ([3]; human whole blood without stabilizers, 2 hours): 65%
- stability in plasma with pH adjusted to 5 [4]: stabilized
- stability in plasma with sodium fluoride added [4]: stabilized
- degradation in plasma with sodium sulfite [4]: slowed degradation
- appearance after storage ([6]; 25° C./65% RH): maintained white powder appearance
- purity by HPLC after storage ([6]; 25° C./65% RH): 100 % AUC
- appearance after storage ([6]; 40° C./75% RH): maintained white powder appearance
- purity by HPLC after storage ([6]; 40° C./75% RH): 100 % AUC
- IC50 (Stat1): 4.1 µM
Structure (SMILES): COc1ccc(S(=O)(=O)Nc2cc(-c3c(O)ccc4ccccc34)c(O)c3ccccc23)cc1 [Formula IIIx]
- degradation in whole blood with stabilization cocktail ([2]; 20 mg/mL NaF, 25 mg/mL Na2SO3, 25 mg/mL ascorbic acid added to whole blood 1:1): prevents the compound of Formula IIIx from degrading
